Source: ChEMBL document CHEMBL4342498, “Design and Discovery of an Orally Efficacious Spiroindolinone-Based Tankyrase Inhibitor for the Treatment of Colon Cancer” (J Med Chem, 2020)
Active and inactive are the calls of the source. The rule behind the calls is not given here.

How the values were obtained:
[1] = Plasma concentration in human COLO320DM cells xenografted Prkdc-NOD-SCID CB17 mouse at 20 mg/kg, po administered twice daily for 5 days followed by 2 days interval for 2 cycles measured 4 hrs post-last dose; type: ADME, organism-based
[2] = Oral bioavailability in Sprague-Dawley rat at 3 mg/kg; type: ADME, organism-based; conditions: in vivo
Cytochrome P450 3A4 = Cytochrome P450 3A4 (Homo sapiens, UniProt P08684); assay: Inhibition of CYP3A4 in human liver microsomes using midazolam as substrate preincubated for 5 mins followed by NADPH addition and measured for 10 to 30 mins by LC-MS/MS analysis; type: ADME
Chain of Cytochrome P450 3A4 (P08684 whole entry): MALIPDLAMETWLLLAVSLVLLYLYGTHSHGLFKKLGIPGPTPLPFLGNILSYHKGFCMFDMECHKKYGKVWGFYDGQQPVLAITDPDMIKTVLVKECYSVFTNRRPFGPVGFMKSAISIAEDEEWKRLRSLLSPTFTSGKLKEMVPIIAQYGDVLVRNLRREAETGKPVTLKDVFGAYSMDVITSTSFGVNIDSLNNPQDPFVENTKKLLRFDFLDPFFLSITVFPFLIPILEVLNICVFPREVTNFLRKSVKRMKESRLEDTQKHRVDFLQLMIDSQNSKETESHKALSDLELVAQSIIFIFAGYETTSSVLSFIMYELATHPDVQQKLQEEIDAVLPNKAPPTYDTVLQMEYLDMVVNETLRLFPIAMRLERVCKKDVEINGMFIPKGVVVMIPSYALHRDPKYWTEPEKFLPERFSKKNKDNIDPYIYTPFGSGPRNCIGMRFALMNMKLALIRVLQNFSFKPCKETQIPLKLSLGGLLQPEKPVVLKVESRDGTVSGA

Homo sapiens [3] = species: Homo sapiens
[4] = Cmax in ICR mouse at 20 mg/kg, ip; type: ADME, organism-based; parameters: dose 20 mg/kg, route intraperitoneal; conditions: in vivo
Mus musculus [5] = assay: (§1) In vivo inhibition of TNSK/TNSK2-medited WNT/beta-catenin signaling in human COLO320DM cells xenografted Prkdc-NOD-SCID CB17 mouse assessed as reduction in active-beta catenin expression in tumor nuclear extract at 10 to 20 mg/kg, po administered twice daily for 5 days followed by 2 days interval for 2 cycles measured 4 hrs post-last dose by Western blot analysis; type: functional, organism-based
Cytochrome P450 2D6 = Cytochrome P450 2D6 (Homo sapiens, UniProt P10635); assay: Inhibition of CYP2D6 in human liver microsomes using bufuralol as substrate preincubated for 5 mins followed by NADPH addition and measured for 10 to 30 mins by LC-MS/MS analysis; type: ADME
Chain of Cytochrome P450 2D6 (P10635 whole entry): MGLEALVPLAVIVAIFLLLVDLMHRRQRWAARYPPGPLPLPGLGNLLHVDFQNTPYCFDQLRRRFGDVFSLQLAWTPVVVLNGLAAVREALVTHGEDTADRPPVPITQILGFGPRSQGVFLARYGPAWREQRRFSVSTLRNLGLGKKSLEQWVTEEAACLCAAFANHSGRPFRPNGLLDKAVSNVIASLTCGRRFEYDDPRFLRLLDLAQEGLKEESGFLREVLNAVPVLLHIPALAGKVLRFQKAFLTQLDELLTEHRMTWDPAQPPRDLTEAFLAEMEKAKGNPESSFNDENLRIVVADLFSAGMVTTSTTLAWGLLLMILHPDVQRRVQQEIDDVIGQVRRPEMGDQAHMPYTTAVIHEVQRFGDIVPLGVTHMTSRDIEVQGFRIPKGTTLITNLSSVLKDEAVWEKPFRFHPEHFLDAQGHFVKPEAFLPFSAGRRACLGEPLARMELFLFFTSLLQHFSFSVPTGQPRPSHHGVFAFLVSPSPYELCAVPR

COLO 320DM [6] = assay: Antiproliferative activity against human COLO320DM cells assessed inhibition of cell growth measured after 5 days by MTT assay; type: functional; conditions: 120 h
Cytochrome P450 2C8 = target: T1, Cytochrome P450 2C8 (Homo sapiens, UniProt P10632); assay: Inhibition of CYP2C8 in human liver microsomes using amodiaquine as substrate preincubated for 5 mins followed by NADPH addition and measured for 10 to 30 mins by LC-MS/MS analysis; type: ADME
T1 sequence (P10632 whole entry): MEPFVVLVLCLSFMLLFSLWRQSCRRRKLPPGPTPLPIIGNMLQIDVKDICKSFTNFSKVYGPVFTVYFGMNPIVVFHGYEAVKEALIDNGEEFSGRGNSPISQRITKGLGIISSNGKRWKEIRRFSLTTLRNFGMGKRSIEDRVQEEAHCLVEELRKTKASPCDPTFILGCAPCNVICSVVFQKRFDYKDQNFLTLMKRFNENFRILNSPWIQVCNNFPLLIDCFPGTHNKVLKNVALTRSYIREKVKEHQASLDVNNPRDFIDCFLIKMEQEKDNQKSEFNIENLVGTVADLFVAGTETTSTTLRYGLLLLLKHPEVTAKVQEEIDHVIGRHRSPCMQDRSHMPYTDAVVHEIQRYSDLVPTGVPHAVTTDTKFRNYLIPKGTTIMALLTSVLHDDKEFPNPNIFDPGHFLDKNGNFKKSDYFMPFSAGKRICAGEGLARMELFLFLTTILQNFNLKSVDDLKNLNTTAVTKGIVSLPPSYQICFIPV

[7] = target: T2, Protein mono-ADP-ribosyltransferase PARP10 (Homo sapiens, UniProt Q53GL7); assay: Inhibition of human recombinant N-terminal TEV-cleavgae site-fused-FLAG/Polyhis-tagged PARP10 […] expressed in Escherichia coli assessed as reduction in auto-PARylation using histone as substrate measured after 45 mins in presence of biotinylated-NAD+ by ELISA
T2 sequence (Q53GL7 whole entry): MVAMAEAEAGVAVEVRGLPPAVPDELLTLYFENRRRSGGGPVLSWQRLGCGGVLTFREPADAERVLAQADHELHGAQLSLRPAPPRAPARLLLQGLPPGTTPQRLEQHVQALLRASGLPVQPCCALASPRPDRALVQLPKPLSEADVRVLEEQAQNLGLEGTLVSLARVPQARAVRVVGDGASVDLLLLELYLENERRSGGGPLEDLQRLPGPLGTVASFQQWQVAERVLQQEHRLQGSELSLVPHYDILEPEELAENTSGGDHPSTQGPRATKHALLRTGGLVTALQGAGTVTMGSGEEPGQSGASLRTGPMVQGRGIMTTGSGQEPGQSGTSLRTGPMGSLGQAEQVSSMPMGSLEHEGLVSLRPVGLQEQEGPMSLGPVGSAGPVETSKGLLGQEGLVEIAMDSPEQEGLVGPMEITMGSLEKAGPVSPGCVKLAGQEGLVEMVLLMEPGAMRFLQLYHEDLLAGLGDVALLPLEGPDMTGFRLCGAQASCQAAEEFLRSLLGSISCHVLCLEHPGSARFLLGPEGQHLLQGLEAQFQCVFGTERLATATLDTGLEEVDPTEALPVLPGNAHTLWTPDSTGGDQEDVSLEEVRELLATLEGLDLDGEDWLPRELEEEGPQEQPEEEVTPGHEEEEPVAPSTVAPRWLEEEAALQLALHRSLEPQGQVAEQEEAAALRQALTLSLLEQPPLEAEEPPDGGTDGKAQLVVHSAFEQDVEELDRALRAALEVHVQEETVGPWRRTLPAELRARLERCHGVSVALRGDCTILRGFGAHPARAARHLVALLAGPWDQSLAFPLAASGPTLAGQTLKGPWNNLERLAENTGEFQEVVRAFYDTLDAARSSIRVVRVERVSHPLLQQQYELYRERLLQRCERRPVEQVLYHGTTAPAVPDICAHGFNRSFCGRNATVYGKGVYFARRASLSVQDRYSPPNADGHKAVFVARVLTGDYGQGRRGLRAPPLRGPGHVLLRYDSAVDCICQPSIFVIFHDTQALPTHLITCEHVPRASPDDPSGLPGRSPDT

Homo sapiens [8] = species: Homo sapiens; remark: listed apart in the source
Mus musculus [9] = assay: as §1, with “total beta” for “active-beta”; type: functional, organism-based
[10] = Cmax in Sprague-Dawley rat at 3 mg/kg, po; type: ADME, organism-based; parameters: dose 3 mg/kg, route oral; conditions: in vivo
[11] = Tmax in ICR mouse at 20 mg/kg, ip; type: ADME, organism-based; conditions: in vivo
[12] = Toxicity in human COLO320DM cells xenografted Prkdc-NOD-SCID CB17 mouse assessed as behavioral changes at 10 to 20 mg/kg, ip administered twice daily for 5 days followed by 2 days interval for 2 cycles measured during compound dosing; type: organism-based; conditions: in vivo
[13] = Total clearance in Sprague-Dawley rat at 3 mg/kg, iv; type: ADME, organism-based; conditions: in vivo
COLO 320DM [14] = assay: Antitumor activity against human COLO320DM cells xenografted in Prkdc-NOD-SCID CB17 mouse assessed as tumor growth inhibition; type: functional

| Compound | concentration at 4 h [1] [µM] | bioavailability [2] [%] | IC50 (Cytochrome P450 3A4) [µM] | Ratio IC50 (Homo sapiens [3]) | Cmax [4] [µM] | inhibition (Mus musculus [5]) | IC50 (Cytochrome P450 2D6) [µM] | GI50 (COLO 320DM [6]) [nM] | IC50 (Cytochrome P450 2C8) [µM] | IC50 [7] [µM] | Ratio IC50 (Homo sapiens [8]) | inhibition (Mus musculus [9]) | Cmax [10] [µM] | Tmax [11] [h] | Activity [12] | clearance [13] [mL/min/kg] | TGI (COLO 320DM [14]) |
| --- | --- | --- | --- | --- | --- | --- | --- | --- | --- | --- | --- | --- | --- | --- | --- | --- | --- |
| C[C@@H]1CN(c2cc(F)c3c(c2)N(C)C(=O)C32CCN(c3nc4c(c(=O)[nH]3)CCCN4C)CC2)C[C@H](C)O1 | 23.3 | 100 | > 10 | 34 | 75.6 | Active | > 10 | 35 | > 10 | 8.05 | 504 | Active | 12.7 | 1 | Non-Toxic | 3.17 | – |
| CN1CCN(c2cc(F)c3c(c2)N(C)C(=O)C32CCN(c3nc4c(c(=O)[nH]3)CCCN4C)CC2)CC1 | – | – | – | – | – | – | – | – | – | – | – | – | – | – | – | – | inactive |
